Assay results as given in paper PMC4008364, “Alleviation of behavioral hypersensitivity in mouse models of inflammatory pain with two structurally different casein kinase 1 (CK1) inhibitors” (Molecular Pain, 2014).
Substitutions are numbered along the chain they refer to. pIC50: −log10 of the molar value. Read-outs that look alike come from different tables or passages of the source.

Experiments:
[1] = target: T1, CK1ϵ (Homo sapiens, UniProt P49674); assay: PER3 nuclear translocation assay, HEK293 cells expressing CK1ϵ; assay type: cell-based; conditions: 1 hour pre-incubation, 8 hours doxycycline
T1 construct: F2A peptide (self-cleaving link to EGFP; its remnant stays on the CK1 C-terminus) (C); expressed in transfected cells; co-expressing mCherry-PER3

[2] = system: CFA-induced inflammatory pain in mice; assay: CFA-induced persistent inflammatory pain behaviors, intrathecal injection; assay type: in vivo, mouse; conditions: for withdrawal latency of the ipsilateral hind paw (thermal hyperalgesia), CFA / withdrawal threshold of the ipsilateral hind paw (mechanical allodynia), CFA: i.t., IC261 0.1-1 nmol, TG003 0.1-100 pmol, 3 days after CFA
Method: (§1) Male C57BL/6 J mice (5 weeks old) were purchased from Clea Japan, Inc. (Tokyo, Japan) and housed under controlled temperature (24 ± 1°C) and humidity (55 ± 10%) with a 12-hour light-dark cycle with food and water freely available. The animal experiments were approved by the Animal Care Committees of Tokyo Medical and Dental University (approval No. 0090173) and Kagoshima University (approval No. MD10053), and were conducted in accordance with the ethical guidelines for the study of experimental pain in conscious animals published by the International Association of the Study of Pain (1995) and the European Communities Council Directive of 24 November, 1986 (86/609/EEC).
(§2) To produce acute and persistent inflammatory pain, carrageenan (2% lambda carrageenan in saline, 25 μl, Sigma, St. Louis, MO) and complete Freund’s adjuvant (CFA, 25 μl, Sigma) were injected into the plantar surface of the right hindpaw under light halothane anesthesia, respectively. Control mice were treated with saline or incomplete Freund’s adjuvant (IFA, Sigma), respectively. Mechanical allodynia and thermal hyperalgesia were measured using the Dynamic Plantar Aesthesiometer (Ugo Basile, Comerio VA, Italy) and the Paw Thermal Stimulator (UCSD, San Diego, CA, USA), respectively as described. In CFA model, these behavioral experiments were conducted 3 days after the injection. Intrathecal (i.t.) injection was given in a volume of 5 μl by percutaneous puncture through an intervertebral space at the level of the 5th or 6th lumbar vertebra, according to a previously reported procedure. An investigator, who was unaware of the drug treatment, performed all of the behavioral experiments.

[3] = target: T2, human CK1α (Homo sapiens, UniProt P48729); assay: In vitro kinase assay (QuickScout mobility shift assay), CK1α; assay type: biochemical
T2 construct: Full-length human CK1α, CK1γ1, CK1γ2, CK1γ3; GST (N); purchased Carna Biosciences, Inc; host or cells: baculovirus system (insect cells)
Source text: (§3) […]; Carna Biosciences, Inc., Kobe, Japan). Detailed information on the assay condition is available on the website of Carna Biosciences (http://www.carnabio.com). Full-length human CK1α, CK1γ1, CK1γ2, CK1γ3 and catalytic domain of human CK1ϵ were expressed as N-terminal GST-fusion protein using baculovirus system, and purified by using glutathione sepharose chromatography. Catalytic domain of CK1δ was expressed as N-terminal GST-fusion protein in E. coli, and purified by using glutathione sepharose chromatography.

[4] = system: substantia gelatinosa neurons; assay: Whole-cell patch-clamp recording of sEPSCs in spinal cord slices; assay type: cell-based, mouse; conditions: for frequency and amplitude of sEPSCs, control mice: 1 μM superfusion, slices from control mice, holding potential -70 mV; for mean frequency of sEPSCs in inflammatory pain model mice: 1 μM, carrageenan- and CFA-inflamed mice
Method: (§4) Adult mouse spinal cord slices were prepared according to the method of Yoshimura & Jessell. Briefly, 6 hours after carrageenan or saline injection, and 3 days after CFA or IFA injection, transverse slices (thickness, 800-900 μm) of the L5 spinal segments with the L5 dorsal root attached were cut on a vibrating blade microtome. The slices were superfused with Krebs solution (10-15 ml/min) saturated with 95% O2 and 5% CO2 at 36 ± 1°C. The composition of Krebs solution was as follows (in mM): NaCl 117; KCl 3.6; NaHCO3 25; NaH2PO4 1.2; CaCl2 2.5; MgCl2 1.2, and glucose 11 (pH 7.4 after gas saturation).
Blind whole-cell patch-clamp recordings were made from the lamina II (substantia gelatinosa: SG) neurons ipsilateral to carrageenan, CFA, or vehicle (saline or IFA) injection in voltage clamp mode. Patch pipettes were fabricated from thin-walled, borosilicate, glass-capillary tubing (1.5 mm o.d., World Precision Instruments). After establishing the whole-cell configuration, neurons were held at the potential of -70 mV to record spontaneous excitatory postsynaptic currents (sEPSCs) and at the potential of 0 mV to record spontaneous inhibitory postsynaptic currents (sIPSC). Under these conditions, GABA- and glycine-mediated IPSCs and glutamate-mediated EPSCs, respectively, were negligible, because these holding potential were close to the reversal potentials of IPSCs and EPSCs, respectively. Recording electrodes were filled with either potassium gluconate-based solution (in mM: K-gluconate 135; KCl 5; CaCl2 0.5; MgCl2 2; EGTA 5; HEPES 5; ATP-Mg 5; adjusted with KOH to pH 7.2) to investigate EPSCs, or Cs-based solution (in mM: Cs2SO4 110; tetraethylammonium 5; CaCl2 0.5; MgCl2 2; EGTA 5; HEPES 5; ATP-Mg 5; adjusted with CsOH to pH 7.2) to examine IPSCs. The resistance of a typical patch pipette is 5-10 MΩ. Membrane currents were amplified with an Axopatch 200B amplifier (Molecular Devices, Sunnyvale, CA, USA) in voltage-clamp mode. Signals were low-pass filtered at 5 kHz and digitized at 333 kHz with an A/D converter (Digidata 1322, Molecular Devices). Data were stored with a personal computer using pCLAMP10 software and analyzed with Mini Analysis software (Synaptosoft Inc., Decatur, GA, USA).
(§5) The average values of both frequency and amplitude of sEPSCs or sIPSCs during the control (1 min) and 5-10 min after the drug application (1 min period after the attainment of steady effect of each drug) were calculated and quantified as relative changes in frequency and amplitude.

[5] = system: carrageenan-induced inflammatory pain in mice; assay: Carrageenan-induced acute inflammatory pain behaviors, intrathecal injection; assay type: in vivo, mouse; conditions: for withdrawal latency of the ipsilateral hind paw (thermal hyperalgesia), carrageenan / withdrawal threshold of the ipsilateral hind paw (mechanical allodynia), carrageenan: i.t., IC261 0.1-1 nmol, TG003 0.1-100 pmol
Method: as §1, §2

[6] = target: T3, human CK1γ1 (Homo sapiens, UniProt Q9HCP0); assay: In vitro kinase assay (QuickScout mobility shift assay), CK1γ1; assay type: biochemical
T3 construct: Full-length human CK1α, CK1γ1, CK1γ2, CK1γ3; GST (N); purchased Carna Biosciences, Inc; host or cells: baculovirus system (insect cells)
Source text: as §3

[7] = system: Clk1; design: method as in PMID 15010457; conditions: range given for Clk1 and 4 isoforms together; read-out: IC50 against Clk1; cited from earlier work
[8] = target: CK1δ (Homo sapiens, UniProt P48730); assay: PER3 nuclear translocation assay, HEK293 cells expressing CK1δ; conditions: 30 μM, 1 hour pre-incubation, 8 hours doxycycline
[9] = system: substantia gelatinosa neurons; assay: Whole-cell patch-clamp recording of sIPSCs in spinal cord slices; assay type: cell-based, mouse; conditions: 1 μM, holding potential 0 mV
Method: as §4
Blind whole-cell patch-clamp recordings were made from the lamina II (substantia gelatinosa: SG) neurons ipsilateral to carrageenan, CFA, or vehicle (saline or IFA) injection in voltage clamp mode. Patch pipettes were fabricated from thin-walled, borosilicate, glass-capillary tubing (1.5 mm o.d., World Precision Instruments). […] Data were stored with a personal computer using pCLAMP10 software and analyzed with Mini Analysis software (Synaptosoft Inc., Decatur, GA, USA).
as §5

[10] = target: T4, human CK1γ2 (Homo sapiens, UniProt P78368); assay: In vitro kinase assay (QuickScout mobility shift assay), CK1γ2; assay type: biochemical
T4 construct: Full-length human CK1α, CK1γ1, CK1γ2, CK1γ3; GST (N); purchased Carna Biosciences, Inc; host or cells: baculovirus system (insect cells)
Source text: (§6) Detailed information on the assay condition is available on the website of Carna Biosciences (http://www.carnabio.com). Full-length human CK1α, CK1γ1, CK1γ2, CK1γ3 and catalytic domain of human CK1ϵ were expressed as N-terminal GST-fusion protein using baculovirus system, and purified by using glutathione sepharose chromatography. Catalytic domain of CK1δ was expressed as N-terminal GST-fusion protein in E. coli, and purified by using glutathione sepharose chromatography.

[11] = target: T5, CK1δ (Homo sapiens, UniProt P48730); assay: In vitro kinase assay (QuickScout mobility shift assay), CK1δ; assay type: biochemical
T5 construct: Catalytic domain of CK1δ was expressed as N-terminal GST-fusion protein in E. coli; GST (N); purchased Carna Biosciences, Inc; host or cells: E. coli
T5 sequence (P48730 9-277 limits assumed): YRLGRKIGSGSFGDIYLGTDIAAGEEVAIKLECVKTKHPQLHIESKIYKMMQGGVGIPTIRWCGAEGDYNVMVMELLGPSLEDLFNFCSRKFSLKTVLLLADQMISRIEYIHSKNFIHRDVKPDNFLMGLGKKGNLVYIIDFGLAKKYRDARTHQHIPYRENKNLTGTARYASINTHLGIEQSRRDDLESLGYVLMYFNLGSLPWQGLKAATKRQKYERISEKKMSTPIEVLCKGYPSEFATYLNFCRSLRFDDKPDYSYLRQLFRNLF
Source text: as §6

[12] = target: T6, human CK1ϵ (Homo sapiens, UniProt P49674); assay: In vitro kinase assay (QuickScout mobility shift assay), CK1ϵ; assay type: biochemical; conditions: substrate peptide CKtide; ATP at Km 16 μM; average of duplicated experiments
T6 construct: catalytic domain of human CK1ϵ were expressed as N-terminal GST-fusion protein; GST (N); purchased Carna Biosciences, Inc; host or cells: baculovirus system (insect cells)
T6 sequence (P49674 9-277 limits assumed): T5 sequence (P48730 9-277 limits assumed) with T19A, D20N, A23S, I47F, T59S, R61K, A241S
Source text: as §6

[13] = target: T7, human CK1γ3 (Homo sapiens, UniProt Q9Y6M4); assay: In vitro kinase assay (QuickScout mobility shift assay), CK1γ3; assay type: biochemical; conditions: substrate peptide CKtide; ATP at Km 3.2 μM; average of duplicated experiments
T7 construct: Full-length human CK1α, CK1γ1, CK1γ2, CK1γ3; GST (N); purchased Carna Biosciences, Inc; host or cells: baculovirus system (insect cells)
Source text: as §6

T2 sequence (P48729 whole entry): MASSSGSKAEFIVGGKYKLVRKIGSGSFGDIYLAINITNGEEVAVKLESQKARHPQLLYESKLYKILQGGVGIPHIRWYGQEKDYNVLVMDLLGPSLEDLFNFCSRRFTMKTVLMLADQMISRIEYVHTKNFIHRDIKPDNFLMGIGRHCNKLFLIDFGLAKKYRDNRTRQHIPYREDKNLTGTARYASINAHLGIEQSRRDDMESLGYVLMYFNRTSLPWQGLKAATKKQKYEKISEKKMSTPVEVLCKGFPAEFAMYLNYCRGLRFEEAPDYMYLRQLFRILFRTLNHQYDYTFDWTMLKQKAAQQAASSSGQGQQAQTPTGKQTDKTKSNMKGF
T1 sequence (P49674 whole entry): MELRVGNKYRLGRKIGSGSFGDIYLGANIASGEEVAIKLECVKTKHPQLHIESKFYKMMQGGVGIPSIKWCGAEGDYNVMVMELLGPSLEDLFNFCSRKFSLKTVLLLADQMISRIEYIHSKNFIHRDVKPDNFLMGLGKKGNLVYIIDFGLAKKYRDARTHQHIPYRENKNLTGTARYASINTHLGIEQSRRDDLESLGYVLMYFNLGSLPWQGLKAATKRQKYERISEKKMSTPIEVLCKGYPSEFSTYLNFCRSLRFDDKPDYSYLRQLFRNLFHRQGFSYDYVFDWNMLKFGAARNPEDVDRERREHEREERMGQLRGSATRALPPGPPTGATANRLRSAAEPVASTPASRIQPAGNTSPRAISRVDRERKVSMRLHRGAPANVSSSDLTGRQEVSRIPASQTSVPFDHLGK
T3 sequence (Q9HCP0 whole entry): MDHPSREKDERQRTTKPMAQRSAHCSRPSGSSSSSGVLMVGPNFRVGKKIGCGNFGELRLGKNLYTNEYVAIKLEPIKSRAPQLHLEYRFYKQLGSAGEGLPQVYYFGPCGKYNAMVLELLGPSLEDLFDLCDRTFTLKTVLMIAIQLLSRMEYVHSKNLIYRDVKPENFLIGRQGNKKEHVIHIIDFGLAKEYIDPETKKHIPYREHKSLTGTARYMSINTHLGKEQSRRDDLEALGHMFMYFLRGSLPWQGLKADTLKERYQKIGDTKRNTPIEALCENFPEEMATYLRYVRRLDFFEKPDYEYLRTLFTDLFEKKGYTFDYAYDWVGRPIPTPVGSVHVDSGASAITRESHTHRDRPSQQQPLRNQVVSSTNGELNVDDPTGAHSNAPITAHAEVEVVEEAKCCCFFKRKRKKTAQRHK
T4 sequence (P78368 whole entry): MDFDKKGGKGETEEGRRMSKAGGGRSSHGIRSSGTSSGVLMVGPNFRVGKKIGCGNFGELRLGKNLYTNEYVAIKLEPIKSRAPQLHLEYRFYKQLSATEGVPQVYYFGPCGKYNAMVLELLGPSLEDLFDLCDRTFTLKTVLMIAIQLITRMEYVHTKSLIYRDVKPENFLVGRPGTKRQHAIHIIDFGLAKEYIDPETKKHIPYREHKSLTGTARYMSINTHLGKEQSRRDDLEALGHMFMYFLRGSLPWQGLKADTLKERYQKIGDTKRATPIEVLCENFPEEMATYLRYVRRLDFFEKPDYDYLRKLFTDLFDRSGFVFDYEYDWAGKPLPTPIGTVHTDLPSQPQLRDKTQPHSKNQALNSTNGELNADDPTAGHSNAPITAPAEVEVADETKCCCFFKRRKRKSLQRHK
T7 sequence (Q9Y6M4 whole entry): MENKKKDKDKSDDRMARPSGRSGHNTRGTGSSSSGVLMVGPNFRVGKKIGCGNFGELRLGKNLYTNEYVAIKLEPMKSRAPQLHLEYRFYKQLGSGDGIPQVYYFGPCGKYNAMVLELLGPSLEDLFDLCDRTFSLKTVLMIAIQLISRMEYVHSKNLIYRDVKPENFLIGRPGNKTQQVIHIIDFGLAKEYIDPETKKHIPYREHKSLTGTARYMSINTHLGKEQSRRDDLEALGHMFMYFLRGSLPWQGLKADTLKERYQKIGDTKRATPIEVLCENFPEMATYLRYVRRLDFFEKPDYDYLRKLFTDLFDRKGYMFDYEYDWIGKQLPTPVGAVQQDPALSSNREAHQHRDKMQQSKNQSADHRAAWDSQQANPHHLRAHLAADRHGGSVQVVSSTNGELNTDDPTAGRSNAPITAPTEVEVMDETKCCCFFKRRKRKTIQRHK

Which “CK1ϵ-induced nuclear translocation of mCherry-PER3” value ([1]; 1 μM) does the source give for `Nc1nccc(-c2c(-c3ccc(F)cc3)ncn2C2CCCCC2)n1` [PF-670462] here?
The value was “also inhibited the nuclear translocation”.

With `CCN1/C(=C/C(C)=O)Sc2ccc(OC)cc21` [TG003] as the molecule, how does the “CK1ϵ-induced nuclear translocation of mCherry-PER3” value ([1]; 30 μM) read?
Its value is “inhibited the nuclear translocation of mCherry-PER3”.

What about the CFA-induced mechanical allodynia ([2]; 1 pmol i.t.) of the same molecule?
Its CFA-induced mechanical allodynia is “significantly reversed”.

What about the CFA-induced thermal hyperalgesia ([2]; 1 pmol i.t.) of the same molecule?
Its CFA-induced thermal hyperalgesia is “did not affect”.

And the “withdrawal latency of the ipsilateral hind paw (thermal hyperalgesia), CFA” value [2]?
The value was “dose-dependently increased”.

And the “withdrawal threshold of the ipsilateral hind paw (mechanical allodynia), CFA” value [2]?
The value was “dose-dependently increased”.

What about the pIC50 ([3]; substrate peptide CKtide, ATP at Km 4.1 μM, average of duplicated experiments, read-out: IC50 on the kinase activity of CK1α) of the same molecule?
The pIC50 was 6.48.

What about the “frequency and amplitude of sEPSCs, control mice” value [4] of the same molecule?
The value was “altered neither the frequency nor the amplitude of sEPSCs”.

And the “mean frequency of sEPSCs in inflammatory pain model mice” value [4]?
The value was “decreased”.

And the “withdrawal latency of the ipsilateral hind paw (thermal hyperalgesia), carrageenan” value [5]?
The value was “dose-dependently increased”.

And the “withdrawal threshold of the ipsilateral hind paw (mechanical allodynia), carrageenan” value [5]?
The value was “dose-dependently increased”.

And the pIC50 ([6]; substrate peptide CKtide, ATP at Km 6.3 μM, average of duplicated experiments, read-out: IC50 on the kinase activity of CK1γ1)?
The pIC50 was 5.82.

What about the “CK1δ-induced nuclear translocation of mCherry-PER3” value [8] of the same molecule?
Its value is “inhibited the nuclear translocation of mCherry-PER3”.

Which results are given for `COc1cc(OC)c(C=C2C(O)=Nc3ccccc32)c(OC)c1` [IC261]?
sIPSCs from the inflamed mice ([9]; carrageenan- and CFA-inflamed mice): did not affect sIPSCs; mean amplitude of control sIPSCs ([9]; control mice): slight but significant reduction; pIC50 [10]: < 4.52; pIC50 [11]: 6.22; pIC50 [12]: 6.07; withdrawal latency of the ipsilateral hind paw (thermal hyperalgesia), CFA [2]: dose-dependently increased; withdrawal threshold of the ipsilateral hind paw (mechanical allodynia), CFA [2]: dose-dependently increased; pIC50 [3]: 6.72; frequency and amplitude of sEPSCs, control mice [4]: altered neither the frequency nor the amplitude of sEPSCs; mean frequency of sEPSCs in inflammatory pain model mice [4]: decreased; withdrawal latency of the ipsilateral hind paw (thermal hyperalgesia), carrageenan [5]: dose-dependently increased; withdrawal threshold of the ipsilateral hind paw (mechanical allodynia), carrageenan [5]: dose-dependently increased; development of thermal hyperalgesia induced by carrageenan ([5]; spinal preemptive treatment, i.t. 30 min before carrageenan): dose-dependently attenuated; pIC50 [6]: < 4.52; pIC50 [13]: < 4.52
